From patent EP4703354A1, “COMPOUND AS CCR6 ANTAGONIST, AND PHARMACEUTICAL COMPOSITION AND USE THEREOF” (Wuhan Createrna Science and Technology Co.,Ltd., priority 2023, dated 2024) come the findings set out here.

The target in data set [1] is T1, human CCR6 (Homo sapiens, UniProt P51684).
T1 construct: expressed in transfected cells; host or cells: HEK293
T1 sequence (P51684 1-374): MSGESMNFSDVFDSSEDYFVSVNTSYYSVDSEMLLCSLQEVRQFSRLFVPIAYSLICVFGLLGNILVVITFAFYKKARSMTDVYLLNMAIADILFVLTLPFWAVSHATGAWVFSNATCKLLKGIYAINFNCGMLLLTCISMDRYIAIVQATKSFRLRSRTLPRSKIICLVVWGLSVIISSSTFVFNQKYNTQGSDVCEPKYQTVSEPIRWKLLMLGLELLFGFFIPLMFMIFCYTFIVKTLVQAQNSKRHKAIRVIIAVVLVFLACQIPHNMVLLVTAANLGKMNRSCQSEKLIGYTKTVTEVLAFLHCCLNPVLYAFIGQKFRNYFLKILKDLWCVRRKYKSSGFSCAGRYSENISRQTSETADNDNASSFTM
The experiment in a line: human CCR6 calcium flux activity (FLIPR, HEK293 cells stably expressing human CCR6, CCL20 stimulation). Format: cell-based. Conditions: for IC50: HEK293 cells stably expressing human CCR6, EC80 human MIP-3 alpha/CCL20, read-out: CCR6 inhibitory activity, IC50; for CCR6 selectivity: ratio of CXCR2 IC50 to CCR6 IC50. In short, it runs like this: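 Read-out is the RFUMax−RFUMin calcium signal (494/516 nm, 90 s) after EC80 CCL20 addition, fitted four-parameter for IC50. Before agonist, Fluo-4 Direct-loaded cells sat with compound 50 min at 37 °C plus 10 min at room temperature.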
In general terms: A change in cytosolic calcium serves as a functional read-out for many receptors and channels.

Data set [2] is described as follows: in vitro liver microsome metabolic stability, beagle dog. Conditions: Beagle dog liver microsomes, 37°C. It counts as in vitro ADME. In short, it runs like this: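 Test compound at 1 µM final (100 µM working solution diluted 1:100) incubated at 37°C with liver microsomes in pH 7.4 phosphate buffer with NADP/G6P/G6PDH/MgCl2 regenerating system; sampled 0–30 min, LC-MS/MS vs internal standard. T1/2 = 0.693/k from remaining-fraction decay.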
A general note: Microsomes from liver hold many membrane-bound enzymes, among them those of drug oxidation.

Data set [3] can be described thus: in vitro liver microsome metabolic stability, mouse. Format: in vitro ADME. As to conditions: Mouse liver microsomes, 37°C. How it is done:
Preparation of working solutions for test compounds and standards: An appropriate amount of the compound was accurately weighed and dissolved in a corresponding volume of suitable solvent to prepare 1 mM stock solutions of the test compounds and standards. The stock solutions were then diluted with appropriate solvent to obtain 100 µM working solutions of the test compounds, ensuring that the DMSO content in the working solutions remained below 10%.
The internal standard compound testosterone (or tolbutamide) and its corresponding solvent, internal standard concentration (200 ng/mL), were selected based on the properties of the test compound.
• Solution A: 0.1 mol/L K2HPO4 (2.28 g K2HPO4·3H2O was dissolved in 100 mL of double-distilled water); • Solution B: 0.1 mol/L KH2PO4 (1.36 g KH2PO4 was dissolved in 100 mL of double-distilled water); • 80.2 mL of Solution A and 19.8 mL of Solution B were mixed thoroughly, and the pH was adjusted to 7.4.
37.5 mg of glycine was weighed, dissolved in 100 mL of ultrapure water, and adjusted to pH 8.0 with NaOH.
1.25 mg of glucose-6-phosphate dehydrogenase (400 U/mg) was weighed (the specific amount weighed was calculated based on the activity of the purchased glucose-6-phosphate dehydrogenase), dissolved in 1 mL of glycine buffer to a concentration of 500 U/mL, aliquoted into 20 µL per tube, and stored at -20°C for future use.
7.83 mg of NADP, 0.06 mL of D-glucose-6-phosphate (260 mg/mL), and 10.17 mg of MgCl2·6H2O were precisely weighed.
The mixture was dissolved in 1 mL of pure water. The cofactor ratio composition: NADP 10 mM, D-glucose-6-phosphate 60 mM, MgCl2·6H2O 50 mM.
The reaction system (taking a 500 µL system as an example) was composed of the following solution ratios: 416.5 µL phosphate buffer, 5 µL compound working solution, 25 µL liver microsomes, 3.5 µL glucose-6-phosphate dehydrogenase, and 50 µL cofactor solution. The total incubation volume could be adjusted according to experimental requirements.
416.5 µL of phosphate buffer was taken, 25 µL of liver microsomes, 3.5 µL of glucose-6-phosphate dehydrogenase, and 50 µL of cofactor solution were added, vortexed twice to mix, and preincubated in a 37°C water bath for 5 minutes. Then, 5 µL of the test compound working solution was added, vortexed twice to mix, each time for 2-3 seconds, and placed in a 37°C water bath to initiate the reaction, with two parallel samples set. At 0.5 min, 1 min, 2 min, 5 min, 15 min, and 30 min after the reaction, 50 µL of the mixture was taken and added to centrifuge tubes containing 200 µL of 0°C pre-cooled internal standard working solution to terminate the reaction, vortexed for 1 minute to mix, and centrifuged at 13,000 rpm for 10 minutes in a 4°C pre-cooled high-speed centrifuge. The supernatant was collected for analysis. After the compound was added and vortex-mixed, 50 µL of the mixture was rapidly transferred to a centrifuge tube containing 200 µL of a pre-cooled (0°C) internal standard working solution to terminate the reaction, vortex-mixed for 1 minute, and used as the relative zero-point sample (relative to the standard group). The sample was then placed into a 37°C water bath to initiate the reaction, and timing was started.
The sample analysis of the test compound was performed using the liquid chromatography-tandem mass spectrometry (LCMS/MS) method. The semi-quantitative determination was performed using the ratio of the analyte peak area to the internal standard peak area. The retention times of the analyte and internal standard, chromatogram acquisition, and chromatogram integration were processed using Analyst software.
The in vitro elimination rate constant k of the test compound and the control compound was determined by converting the ratio of the peak area of the test compound to the internal standard into the remaining rate, and T1/2 was then calculated according to the following formula. T1/2 = (Ln2)/(k) = (0.693)/(k) [formula] Table 3. […]

Consider `CN(C)C(=O)c1nccc(Nc2c(N[C@@H](C#CC3CCC3)[C@]3(C)CC(F)(F)CO3)c(=O)c2=O)c1O` (single isomer, unassigned) [110A], for which, in data set [1], the concentration for half-maximal inhibition (IC50) (as a rule, the concentration needed to halve the response being measured) is 9.3 nM and the CCR6 selectivity worked out at 32.0. Besides, the “Liver microsome T1-2 (min) Beagle dog” value in data set [2] is reported as 358.15 min. The “Liver microsome T1-2 (min) Mouse” value in data set [3] was determined as 1597.63 min.

As for `CN(C)C(=O)c1nccc(Nc2c(N[C@@H](c3nc(Cl)ccc3F)[C@@]3(C)CC(F)(F)CO3)c(=O)c2=O)c1O` [068B, 4-((2-(((S)-(6-chloro-3-fluoropyridin-2-yl)((R)-4,4-difluoro-2-methyltetrahydrofuran-2-yl)methyl)amino)-3,4-dioxocyclobut-1-en-1-yl)amino)-3-hydroxy-N,N-dimethylpicolinamide], in data set [1], the IC50 amounted to 5.3 nM and the CCR6 selectivity is recorded as 1440.2. Further, the “Liver microsome T1-2 (min) Beagle dog” value in data set [2] is recorded as 199.34 min. Further, in data set [3], the “Liver microsome T1-2 (min) Mouse” value amounted to 65.23 min.

Turning to `Cc1cc(F)cnc1[C@H](Nc1c(Nc2ccnc(C(=O)N(C)C)c2O)c(=O)c1=O)[C@]1(C)CC(F)(F)CO1` [093A, 4-((2-(((S)-((S)-4,4-difluoro-2-methyltetrahydrofuran-2-yl)(5-fluoro-3-methylpyridin-2-yl)methyl)amino)-3,4-dioxocyclobut-1-en-1-yl)amino)-3-hydroxy-N,N-dimethylpicolinamide], in data set [1], the IC50 turned out to be 17.1 nM and the CCR6 selectivity is listed as greater than 5848.0. Also, in data set [2], the “Liver microsome T1-2 (min) Beagle dog” value came to 104.27 min.

`CN(C)C(=O)c1nccc(Nc2c(N[C@@H](c3cccc(Cl)n3)C3(C)CCCC3)c(=O)c2=O)c1O` [compound 003, (R)-4-((2-(((6-chloropyridin-2-yl)(1-methylcyclopentyl)methyl)amino)-3,4-dioxocyclobut-1-en-1-yl)amino)-3-hydroxy-N,N-dimethylpicolinamide]: in data set [1], the IC50 amounted to 22.1 nM and the CCR6 selectivity worked out at 100.0.

Take `CN(C)C(=O)c1nccc(Nc2c(N[C@@H](c3ccc(F)cn3)C3(C)CCCC3)c(=O)c2=O)c1O` [compound 005, (R)-4-((2-(((5-fluoropyridin-2-yl)(1-methylcyclopentyl)methyl)amino)-3,4-dioxocyclobut-1-en-1-yl)amino)-3-hydroxy-N,N-dimethylpicolinamide]: in data set [1], the half-maximal inhibitory concentration (IC50) turned out to be 10.9 nM and the CCR6 selectivity came out at 115.0. Moreover, the “Liver microsome T1-2 (min) Beagle dog” value in data set [2] was found to be 254.48 min. Moreover, in data set [3], the “Liver microsome T1-2 (min) Mouse” value is given as 1188.6 min.

`CN(C)C(=O)c1nccc(Nc2c(N[C@@H](c3ncc(F)cc3F)C3(C)CCCC3)c(=O)c2=O)c1O` [compound 009, (R)-4-((2-(((3,5-difluoropyridin-2-yl)(1-methylcyclopentyl)methyl)amino)-3,4-dioxocyclobut-1-en-1-yl)amino)-3-hydroxy-N,N-dimethylpicolinamide]: in data set [1], the IC50 was determined as 8 nM and the CCR6 selectivity was found to be 303.4. For the same compound, the “Liver microsome T1-2 (min) Beagle dog” value in data set [2] is reported as 89.42 min. Also, the “Liver microsome T1-2 (min) Mouse” value in data set [3] worked out at 178.84 min.

For `Cc1cccnc1[C@H](Nc1c(Nc2ccc(Cl)c(C(=O)N(C)C)c2O)c(=O)c1=O)C1(C)CCCC1` [compound 063, (R)-6-chloro-2-hydroxy-N,N-dimethyl-3-((2-(((1-methylcyclopentyl)(3-methylpyridin-2-yl)methyl)amino)-3,4-dioxocyclobut-1-en-1-yl)amino)benzamide], in data set [1], the IC50 was determined as 11.7 nM and the CCR6 selectivity was 1310.8. Also, the “Liver microsome T1-2 (min) Beagle dog” value in data set [2] came to 202.25 min. For the same compound, the “Liver microsome T1-2 (min) Mouse” value in data set [3] is no less than 120 min.

With `CN(C)C(=O)c1nccc(Nc2c(N[C@@H](c3cccc(CF)n3)C3(C)CCCC3)c(=O)c2=O)c1O` [compound 108, (R)-4-((2-(((6-(fluoromethyl)pyridin-2-yl)(1-methylcyclopentyl)methyl)amino)-3,4-dioxocyclobut-1-en-1-yl)amino)-3-hydroxy-N,N-dimethylpicolinamide], in data set [1], the 50% inhibitory concentration (IC50) was 3.9 nM and the CCR6 selectivity amounted to 189.6. In addition, the “Liver microsome T1-2 (min) Beagle dog” value in data set [2] came to 63.57 min.

On to `CC#C[C@H](Nc1c(Nc2ccnc(C(=O)N(C)C)c2O)c(=O)c1=O)C1(C)CCCC1` [compound 113, (R)-3-hydroxy-N, N-dimethyl-4-((2-((1-(1-methylcyclopentyl)but-2-yn-1-yl)amino)-3,4-dioxocyclobut-1-en-1-yl)amino)picolinamide], for which, in data set [1], the IC50 was 49.8 nM and the CCR6 selectivity is 29.7. Also, the “Liver microsome T1-2 (min) Beagle dog” value in data set [2] worked out at 520.59 min.

In the case of `CC#C[C@H](Nc1c(Nc2ccc(Cl)c(C(=O)N(C)C)c2O)c(=O)c1=O)C1(C)CCCC1` [compound 114, (R)-6-chloro-2-hydroxy-N, N-dimethyl-3-((2-((1-(1-methylcyclopentyl)but-2-yn-1-yl)amino)-3,4-dioxocyclobut-1-en-1-yl)amino)benzamide], in data set [1], the concentration for half-maximal inhibition (IC50) amounted to 55.3 nM and the CCR6 selectivity is 26.2. Moreover, the “Liver microsome T1-2 (min) Beagle dog” value in data set [2] was 489.6 min. Besides, in data set [3], the “Liver microsome T1-2 (min) Mouse” value was found to be 361.28 min.

`CN(C)C(=O)c1nccc(Nc2c(N[C@@H](C#CC3CC3)C3(C)CCCC3)c(=O)c2=O)c1O` [compound 115, (R)-4-((2-((3-cyclopropyl-1-(1-methylcyclopentyl)prop-2-yn-1-yl)amino)-3,4-dioxocyclobut-1-en-1-yl)amino)-3-hydroxy-N,N-dimethylpicolinamide]: in data set [1], the half-maximal inhibitory concentration (IC50) turned out to be 47.6 nM and the CCR6 selectivity turned out to be 11.1. In data set [2], the “Liver microsome T1-2 (min) Beagle dog” value came out at 1110.44 min. Moreover, the “Liver microsome T1-2 (min) Mouse” value in data set [3] came to 1889.54 min.
